Like-named read-outs stand apart in the source and are kept apart here.
Tests used:
HIV-1JR-CSF = experiment: microbe, parasite or virus in culture; format: cell-based
HIV-1HxBc2 = experiment: microbe, parasite or virus in culture; format: cell-based
HIV-1 isolate BaL = experiment: microbe, parasite or virus in culture; format: cell-based; conditions: Human immunodeficiency virus 1, tropism R5
HIV-1 isolate AC10.0.29 = experiment: microbe, parasite or virus in culture; format: cell-based; conditions: Human immunodeficiency virus 1; isolate AC10.0.29, tropism R5
HIV-1 isolate JR-FL = experiment: microbe, parasite or virus in culture; format: cell-based; conditions: Human immunodeficiency virus 1, tropism R5
[1] = test system: attachment of HIV-1HxBc2 to U87-CD+-CXCR4+ cells; experiment: Temperature shift assay (viral attachment); format: cell-based
Experimental: The entry process can be divided into two temperature-dependent stages, with receptor and coreceptor binding occurring over the temperature range 0-37° C., while the fusion process only occurs at temperatures above 25° C. (Frey, et al., 1995, J. Virol. 69:1462-1472). Based upon differential ranges in temperatures at which binding and fusion/entry occur, a novel assay was developed to detect viral attachment in the presence or absence of inhibitors. Recombinant single-round infective HIV-1 virions are incubated with permissive cells at 4° C. for 2 hours to only allow the initial receptor/coreceptor engagement. Unattached virions, and the compound, are then removed by washing the cells with cold media followed by centrifugation at 1200 rpm for 4 min at 4° C. Cells are replenished with fresh media and transferred to 37° C. After 48 hour of incubation, the level of infection is measured by a luciferase activity as in the standard single-round infection assay. […] Conversely, the small molecule CD4-mimetic NBD-556, which is known to disrupt the gp120-CD4 interaction, reduces the level of infection to 40% of vehicle (DMSO) alone (FIG. 11). […] Moreover, this analysis may be extended to encompass viruses that utilize CCR5 for entry.

[2] = test system: amphotropic murine leukemia virus (AMLV); experiment: microbe, parasite or virus in culture; format: cell-based; conditions: single round infection assay, in words
[3] = test system: HIV-1 92UG037 (subtype A); experiment: HIV-1 replication assay in primary human PBMCs, isolate 92UG037; format: cell-based
[4] = test system: HIV-1 91US004 (subtype B); experiment: HIV-1 replication assay in primary human PBMCs, isolate 91US004; format: cell-based
[5] = test system: HIV-1 98US_MSC5016 (subtype C); experiment: HIV-1 replication assay in primary human PBMCs, isolate 98US_MSC5016; format: cell-based
[6] = test system: HIV-1 99UG_A07412M1 (subtype D); experiment: HIV-1 replication assay in primary human PBMCs, isolate 99UG_A07412M1; format: cell-based
HIV-2 CDC310319 = experiment: Replication assay in primary human PBMCs, HIV-2 isolate; format: cell-based
in vitro = format: cell-based; conditions: human
Experimental: Moreover, this assay was performed using healthy, primary cells to gain further insight into potential toxicities of the compound towards natural target cells. Additionally, as a key issue in the development of novel HIV drugs is their ability to inhibit the replication of genetically diverse isolates (especially isolates from the most globally prevalent subtypes A, B, C, and D), it was chosen to assess the potency of SC26 to inhibit the replication of isolates from subtypes A, B, C, and D in primary human peripheral blood mononuclear cells (PBMCs). Concomitantly, toxicity of SC26 to the PBMCs was assessed using an MTT assay. As can be observed from the IC50 values, the potency of SC26 against different isolates ranges quite dramatically, most likely reflecting differences in the binding site between subtypes.

[7] = test system: HIV-1 94US_3393IN (subtype B); experiment: HIV-1 replication assay in primary human PBMCs, isolate 94US_3393IN
[8] = Human immunodeficiency virus 1, read-out: IC50 JR-CSF
[9] = Human immunodeficiency virus 1, read-out: IC50 HxBc2
[10] = Human immunodeficiency virus 1, PBMC, human PBMCs

**Q.** Which results are given for `COc1cnc(-n2cnc(C)n2)c2[nH]cc(C(=O)C(=O)N3CC4C=NN(c5ccccc5)C4C3)c12` (stereo not shown) [SC12, 1-(4-methoxy-7-(3-methyl-1H-1,2,4-triazol-1-yl)-1H-pyrrolo[2,3-c]pyridin-3-yl)-2-(1-phenyl-3a,4,6,6a-tetrahydropyrrolo[3,4-c]pyrazol-5(1H)-yl)ethane-1,2-dione]?
**A.** IC50 (HIV-1JR-CSF; Human immunodeficiency virus 1): 13 ± 3 nM; IC50 (HIV-1JR-CSF; [8]): 8 ± 2 nM; IC50 (HIV-1HxBc2; Human immunodeficiency virus 1): 24 ± 3 nM; IC50 (HIV-1HxBc2; [9]): 80 ± 20 nM; IC50 (HIV-1 isolate BaL): 3500 ± 300 nM; IC50 (HIV-1 isolate AC10.0.29): 488 ± 47 nM; IC50 (HIV-1 isolate JR-FL): 106 ± 52 nM; block of viral attachment ([1]; temperature shift assay, in words): does not appear to block viral attachment

**Q.** With `COc1cnc(-n2cnc(C)n2)c2[nH]cc(C(=O)C(=O)N(C)C3CN(C(=O)c4ccccc4)C3)c12` [SC18, N-(1-benzoylazetidin-3-yl)-2-(4-methoxy-7-(3-methyl-1H-1,2,4-triazol-1-yl)-1H-pyrrolo[2,3-c]pyridin-3-yl)-N-methyl-2-oxoacetamide] as the compound, how does the IC50 (HIV-1JR-CSF; [8]) read?
**A.** The IC50 was 1300 ± 200 nM.

**Q.** And the IC50 (HIV-1HxBc2; [9])?
**A.** Its IC50 is 102000 ± 160000 nM.

**Q.** For `COc1cnc(Cl)c2[nH]cc(C(=O)C(=O)N3CC4CN(C(=O)c5ccccc5)CC4C3)c12` (stereo not shown) [SC07, 1-(5-benzoylhexahydropyrrolo[3,4-c]pyrrol-2(1H)-yl)-2-(7-chloro-4-methoxy-1H-pyrrolo[2,3-c]pyridin-3-yl)ethane-1,2-dione], which “specificity to HIV-1 (inhibition of AMLV-pseudotyped HIV-1)” value [2] is on record?
**A.** Its value is “no inhibition of AMLV-pseudotyped HIV-1”.

**Q.** And the IC50 (HIV-1JR-CSF; [8])?
**A.** Its IC50 is 980 ± 60 nM.

**Q.** And the IC50 (HIV-1HxBc2; [9])?
**A.** The IC50 was 16800 ± 6200 nM.

**Q.** With `COc1cnc(-n2cnc(C)n2)c2[nH]cc(C(=O)C(=O)NCC3CN(C(=O)c4ccccc4)C3)c12` [SC14, N-((1-benzoylazetidin-3-yl)methyl)-2-(4-methoxy-7-(3-methyl-1H-1,2,4-triazol-1-yl)-1H-pyrrolo[2,3-c]pyridin-3-yl)-2-oxoacetamide] as the compound, how does the IC50 (HIV-1JR-CSF; [8]) read?
**A.** The IC50 was 2500 ± 400 nM.

**Q.** And the IC50 (HIV-1HxBc2; [9])?
**A.** The IC50 was 1200 ± 400 nM.

**Q.** With `COc1ncc(OC)c2c(C(=O)C(=O)N3CC4CCC(c5ccccc5)C4C3)c[nH]c12` (stereo not shown) [SC10, 1-(4,7-dimethoxy-1H-pyrrolo[2,3-c]pyridin-3-yl)-2-(4-phenylhexahydrocyclopenta[c]pyrrol-2(1H)-yl)ethane-1,2-dione] as the compound, how does the IC50 (HIV-1JR-CSF; [8]) read?
**A.** Its IC50 is 420 ± 110 nM.

**Q.** And the IC50 (HIV-1HxBc2; [9])?
**A.** Its IC50 is 4810 ± 4100 nM.

**Q.** With `COc1cnc(-n2cnc(C)n2)c2[nH]cc(C(=O)C(=O)N3CC(CCC(=O)c4ccccc4)C3)c12` [SC15, 1-(4-methoxy-7-(3-methyl-1H-1,2,4-triazol-1-yl)-1H-pyrrolo[2,3-c]pyridin-3-yl)-2-(3-(3-oxo-3-phenylpropyl)azetidin-1-yl)ethane-1,2-dione] as the compound, how does the IC50 (HIV-1JR-CSF; [8]) read?
**A.** The IC50 was 2 ± 0.1 nM.

**Q.** And the IC50 (HIV-1HxBc2; [9])?
**A.** Its IC50 is 3 ± 0.5 nM.

**Q.** Which results are given for `COc1cnc(-n2cnc(C)n2)c2[nH]cc(C(=O)C(=O)N3CC=C(CNC(=O)c4ccccc4)CC3)c12` [SC45, N-((1-(2-(4-methoxy-7-(3-methyl-1H-1,2,4-triazol-1-yl)-1H-pyrrolo[2,3-c]pyridin-3-yl)-2-oxoacetyl)-1,2,3,6-tetrahydropyridin-4-yl)methyl)benzamide]?
**A.** IC50 (HIV-1JR-CSF; [8]): 150 ± 9 nM; IC50 (HIV-1HxBc2; [9]): 100 ± 30 nM

**Q.** With `COc1cnc(-n2cnc(C)n2)c2[nH]cc(C(=O)C(=O)N3CC4CN(C(=O)C5=CCCCC5)CC4C3)c12` (stereo not shown) [SC26, 1-(5-(cyclohex-1-ene-1-carbonyl)hexahydropyrrolo[3,4-c]pyrrol-2(1H)-yl)-2-(4-methoxy-7-(3-methyl-1H-1,2,4-triazol-1-yl)-1H-pyrrolo[2,3-c]pyridin-3-yl)ethane-1,2-dione] as the compound, how does the IC50 (HIV-1JR-CSF; [8]) read?
**A.** The IC50 was 2 ± 0.1 nM.

**Q.** What about the IC50 (HIV-1HxBc2; Human immunodeficiency virus 1) of the same compound?
**A.** The IC50 was 0.6 ± 0.01 nM.

**Q.** And the IC50 (HIV-1HxBc2; [9])?
**A.** The IC50 was 0.6 ± 0.08 nM.

**Q.** And the “Antiviral index (TC50/IC50)” value [3]?
**A.** The value was over 3.97.

**Q.** And the IC50 [3, 10]?
**A.** Its IC50 is 25200 ± 6900 nM.

**Q.** And the “Antiviral index (TC50/IC50)” value [4]?
**A.** Its value is over 513.

**Q.** What about the IC50 [4, 10] of the same compound?
**A.** Its IC50 is 195 ± 12 nM.

**Q.** What about the “Antiviral index (TC50/IC50)” value [5] of the same compound?
**A.** Its value is over 25.6.

**Q.** And the IC50 [5, 10]?
**A.** The IC50 was 3900 ± 800 nM.

**Q.** And the “Antiviral index (TC50/IC50)” value [6]?
**A.** The value was over 204.

**Q.** And the IC50 [6, 10]?
**A.** The IC50 was 490 ± 60 nM.

**Q.** What about the IC50 (HIV-2 CDC310319; Human immunodeficiency virus 2, PBMC, HIV-2 CDC310319, human PBMCs) of the same compound?
**A.** The IC50 was over 100000 nM.

**Q.** What about the “effect on the replication of an HIV-2 isolate” value (HIV-2 CDC310319; human PBMCs, in words) of the same compound?
**A.** The value was “no effect”.

**Q.** What about the CC50 at 7 days (in vitro) of the same compound?
**A.** Its CC50 at 7 days is over 100000 nM.

**Q.** What about the “Antiviral index (TC50/IC50)” value [7] of the same compound?
**A.** Its value is >166,666.

**Q.** Which “level of infection relative to vehicle (DMSO) alone” value ([1]; virions with cells at 4° C. for 2 hours, wash, 37° C. 48 hour, FIG. 11) does the source give for `CC1(C)CC(NC(=O)C(=O)Nc2ccc(Cl)cc2)CC(C)(C)N1` [NBD-556, N1-(4-chlorophenyl)-N2-(2,2,6,6-tetramethyl-4-piperidinyl)-ethanediamide, reference compound] here?
**A.** Its value is 40%.

**Q.** What does the source list for `COc1ncc(OC)c2c(C(=O)C(=O)N3CC4CN(C(=O)c5ccccc5)CC4C3)c[nH]c12` (stereo not shown) [SC08, 1-(5-benzoylhexahydropyrrolo[3,4-c]pyrrol-2(1H)-yl)-2-(4,7-dimethoxy-1H-pyrrolo[2,3-c]pyridin-3-yl)ethane-1,2-dione]?
**A.** specificity to HIV-1 (inhibition of AMLV-pseudotyped HIV-1) [2]: no inhibition of AMLV-pseudotyped HIV-1; IC50 (HIV-1JR-CSF; read-out: IC50 JR-CSF, single round infection assay): 90 ± 10 nM; IC50 (HIV-1HxBc2; [9]): 190 ± 80 nM

Reference: patent US9920073B2, “Compositions useful for inhibiting HIV-1 infection and methods using same” (Drexel University, priority 2013, dated 2018)
